The values that follow come from patent US10307398B2, “Resuscitation composition and methods of making and using” (Regents of the University of Minnesota, priority 2016, dated 2019).

Series [1] in a line: solubility of melatonin in excipient solutions. It is filed as physicochemical. Particulars: aqueous with cosolvent or surfactant or cyclodextrin, thermodynamic from solid. The procedure: A saturated melatonin solution was prepared containing the indicated excipient concentrations and incubated end over end at room temperature for 72 hours. After 72 hours, solutions were filtered through a […] filter and diluted 1:10. Absorption was measured spectrophotometrically at 287 nm (excipient solutions alone were used as blanks).

A further series is described as follows: physchem. The procedure: Assuming formation of 1:1 complex between drug and ligand, the complexation efficiency (CE) can be calculated from the slope of the phase-solubility diagram:
[formula] where So is the intrinsic substrate solubility and k1:1 stability constant of the complex.
Solubility Studies. […] An excess amount of MLT was added either to water or PVP solution (concentration ranging from 0.1 to 20% w/v) in polypropylene tubes (protected from light) and incubated with end-over-end rotation at 25° C. until equilibrium was achieved (72 hours). An aliquot was filtered (0.45 μm membrane) and the absorption measured at 270 nm (Epoch microplate spectrophotometer, BioTek, Winooski, Vt.).
PVP is known to form water soluble or insoluble complexes with various drugs with either enhancement or reduction in solubility.

For series [2] the following is noted: cited from earlier work.
Series [3] can be described thus: water vapor sorption of BHB. It is filed as physicochemical. Particulars: 25° C. The procedure: Water vapor sorption. About 5 mg of sample was placed in the quartz sample pan of an automated vapor sorption balance (DVS-1000, Surface Measurement Systems, London, UK), maintained at 25° C. It was dried under dry nitrogen purge (flow rate 200 mL/min) to constant weight. Equilibrium was assumed to have been achieved if the mass change was <0.001% over 30 min. […] Equilibrium was assumed to have been achieved if the mass change was <0.005% over 30 min. The microbalance was calibrated periodically using a 100 mg standard weight.
In order to gain a deeper understanding into the water-BHB interaction, the ‘as is’ BHB was heated in the TGA up to 120° C., cooled to RT and transferred to the sample chamber of the water sorption analyzer. The other relevant details are provided in the Experimental section. There was no water sorption up to 15% RH and then the sample gained ˜3% water at 20% RH (FIG. 10). This is in excellent agreement with the water content in ‘as is’ BHB. […] However, under the experimental conditions in the water sorption analyzer (maximum dwell time of 360 minutes at any RH), equilibrium was not attained. Therefore, when the RH was further increased to 55%, a pronounced weight increase again was observed. […] There were two RH ranges, (0-20% and 35-55%) where hysteresis was observed.

In brackets after ≈: the same amount, converted by molar mass. Several values for one entry are separate records, joined by “and”; a condition that tells them apart may be missing. Equal entries are not always repeated.

As usually defined, the solubility is the concentration that dissolves in the medium under given conditions. Broadly, the solubility (thermodynamic) is the concentration in solution at equilibrium with solid. On to `COc1ccc2[nH]cc(CCNC(C)=O)c2c1` [melatonin, 5-methoxy-N-acetyltryptamine], for which the solubility at 72 h in series [1] (10% HPbCD/5% PEG400/5% PVP K12 solution, in 10% HPbCD/5% PEG400/5% PVP K12, room temperature) is > 43000 µM and > 10000 µg/mL. The solubility at 72 h in series [1] (20% PVP solution, in 20% PVP, room temperature) is > 43000 µM and > 10000 µg/mL. In the series “physchem”, the “molar ratio of total drug to free drug” value was determined as 1.17 and the “slope of the phase solubility diagram” value is listed as 0.030. The compound also showed a thermodynamic solubility at 72 h in “physchem” (25 °C, water, thermodynamic from solid) of about 8 mM (≈ 1860 µg/mL).

Take `CC(O)COC[C@H]1O[C@@H]2O[C@H]3[C@H](O)[C@@H](O)[C@@H](O[C@H]4[C@H](O)[C@@H](O)[C@@H](O[C@H]5[C@H](O)[C@@H](O)[C@@H](O[C@H]6[C@H](O)[C@@H](O)[C@@H](O[C@H]7[C@H](O)[C@@H](O)[C@@H](O[C@H]8[C@H](O)[C@@H](O)[C@@H](O[C@H]1[C@H](O)[C@H]2O)O[C@@H]8COCC(C)O)O[C@@H]7COCC(C)O)O[C@@H]6COCC(C)O)O[C@@H]5COCC(C)O)O[C@@H]4COCC(C)O)O[C@@H]3COCC(C)O` (stereo partly drawn) [HPbCD, Hydroxypropyl-beta-cyclodextrin]: in series [2], the solubility entry is reported as “exceeds 600 mg/ml”.

Take `C[C@@H](O)CC(=O)O` [BHB, D-β-hydroxybutyrate]: in series [3] (at 20% RH, BHB previously heated to 120° C.), the “water gain (water sorption)” value is reported as about 3%. For the same compound, in series [3] (at 50% RH), the “increase in weight (water sorption, deliquescence)” value was about 40%.
